Earlier results on 125 compounds are cited in the CATMoS acute toxicity set (Mansouri et al. 2021).

Several values for one entry are separate records, joined by “and”; a condition that tells them apart may be missing. Equal values may be shown once.

The data set is described as follows: rat acute oral toxicity. Conditions: in vivo.
Take `CC1C(C)(C)C2=C(C(=O)CCC2)C1(C)C` (stereo not given): the LD50 is 2900 mg/kg. In the case of `O=S1(=O)CCC(NNc2ccccc2)C1` (stereo not given), the LD50 is 2380 mg/kg. Take `F[Si](F)(F)c1ccccc1`: the LD50 was 310 mg/kg. With `CN1C2CCC(C)(C)C1CC(OC(=O)C(O)(c1cccs1)c1cccs1)C2` (stereo not given), the LD50 was 1180 mg/kg. Consider `CCOP(=S)(OCC)Oc1ccc([N+](=O)[O-])c(Cl)c1`, for which the LD50 was 50 mg/kg. `Oc1ccc(Cl)cc1-c1ccccc1`: the 50% lethal dose (LD50) was 3500 mg/kg.

With `O=C(CF)NC(=O)Nc1ccccc1`, the LD50 is 25 mg/kg. For `CC(C)(C)CCCCC(=O)O`, the LD50 was 2070 mg/kg. Regarding `CCOc1ccc2c(c1)C(C)=CC(C)(C)N2`, the median lethal dose (LD50) is 3580 mg/kg.

As for `COc1ccc(C(Oc2ccccc2)C2=NCCCN2)cc1` (stereo not given), the LD50 is 1000 mg/kg. On to `C=CC(C)NC(=S)NNC(=S)NC` (stereo not given), for which the LD50 is 1000 mg/kg. For the compound `CCCCCCCCCCOC(=O)Cc1ccc(N(CCCl)CCCl)cc1`, the LD50 is 150 mg/kg. `Cc1ccccc1OCC(O)CN1CC=CCC1` (stereo not given): the LD50 is 340 mg/kg. Turning to `COP(=S)(OC)Oc1ccc([N+](=O)[O-])c(SC(C)C)c1`, the LD50 was 1140 mg/kg. In the case of `O=COCCc1ccccc1`, the LD50 is 3220 mg/kg. For `CCOC(=O)C(C(C)=O)C(=O)Cc1c(C)n(C(=O)c2ccc(Cl)cc2)c2ccc(OC)cc12` (stereo not given), the LD50 is 175 mg/kg. Consider `NC(CCN1CCCCCC1)=NO`, for which the LD50 was 500 mg/kg.

With `COc1cc(OC)n2nc(N)nc2n1`, the median lethal dose (LD50) is 1030 mg/kg. Take `c1ccc2c(c1)Sc1ccccc1N2CCCN1CCOCC1`: the LD50 was 1000 mg/kg. With `O=C(NCCO[N+](=O)[O-])c1cccnc1`, the LD50 is 1220 mg/kg. Regarding `CC(C(=O)O)c1ccc(C(=O)c2ccccc2)s1` (stereo not given), the 50% lethal dose (LD50) was 181 mg/kg.

Consider `CCC(C)(CC)c1cc(N)on1`, for which the LD50 was 144 mg/kg. `Cc1cc(NC(=O)c2ccccc2O)n(-c2ccccc2)n1`: the LD50 was 1320 mg/kg. As to `NS(=O)(=O)C1CCCCC1`, the LD50 was 80 mg/kg. `Clc1ccc(C(OCCN2CCOCC2)c2ccccc2)cc1` (stereo not given): the median lethal dose (LD50) was 710 mg/kg. On to `Oc1ccc(N=Cc2ccccc2)cc1`, for which the LD50 was 3500 mg/kg. For the compound `Cc1cccc(C(C)C)c1`, the LD50 was 2970 mg/kg. On to `Fc1c(Br)c(F)c2nc(C(F)(F)F)[nH]c2c1Br`, for which the LD50 is 7.23 mg/kg. Turning to `c1cncc(CSSCc2cccnc2)c1`, the LD50 was 2150 mg/kg. For the compound `C=CCN(CC=C)c1ccc(OC(=O)NC)cc1`, the 50% lethal dose (LD50) is 86.8 mg/kg. `Cc1ccccc1Oc1cccnn1`: the 50% lethal dose (LD50) was 3090 mg/kg.

As to `COCCOC(=O)CC#N`, the LD50 was 4300 mg/kg. On to `CCCCN1C(=O)c2ccc([N+](=O)[O-])cc2C1=O`, for which the 50% lethal dose (LD50) was 1340 mg/kg. As for `O=C1C(I)=CC(=C(c2cc(I)c(O)c(I)c2)c2ccccc2C(=O)O)C=C1I`, the LD50 is 2800 mg/kg.

Take `O=C1C=Cc2cc(Br)ccc2C1=O`: the LD50 is 3900 mg/kg. With `COCCN(C(=O)CCl)c1c(C)cccc1C`, the 50% lethal dose (LD50) was 1600 mg/kg. As for `CC(N)=[Se]`, the LD50 is 10 mg/kg. As to `CCCCCCCNC(=O)Oc1ccc2c(c1)C1(C)CCN(C)C1N2C` (stereo not given), the LD50 was 25.1 mg/kg. As for `C[C@H]1CCCCN1N=O`, the LD50 is 600 mg/kg. For the compound `CCCCN(CCCC)CC(C)O` (stereo not given), the median lethal dose (LD50) was 1990 mg/kg. Regarding `CNC(C)CC1CCCC1` (stereo not given), the LD50 is 169 mg/kg. Consider `O=C(O)C(c1ccccc1)c1ccccc1`, for which the LD50 was 5540 mg/kg. Turning to `COc1ccc(N)c(S(=O)(=O)O)c1`, the LD50 was 10000 mg/kg.

`CCN(CC)c1ccc(N=Nc2ccc(S(=O)(=O)N(C)C)cc2)c(S(=O)(=O)NCC[n+]2ccccc2)c1`: the LD50 is 5120 mg/kg. With `C/N=N/Nc1ccc(Cl)cc1`, the median lethal dose (LD50) was 329 mg/kg. For `COc1ccc(C=Nc2c(C)n(C)n(-c3ccccc3)c2=O)cc1`, the LD50 is 10000 mg/kg. With `COc1cc(OC)c(C(=O)CCCN2CCCC2)c(OC)c1`, the LD50 is 410 mg/kg.

As for `CC(C)=C1CC[C@@H](C)CC1=O`, the LD50 is 470 mg/kg.

As to `CC(C)(N)Cc1ccccc1`, the LD50 is 188 mg/kg. Take `O=C(CF)Nc1ccc(-c2ccccc2)cc1`: the 50% lethal dose (LD50) is 10 mg/kg. For `CCCCC(CC)CCC(CC(C)C)OS(=O)(=O)O` (stereo not given), the LD50 was 1250 mg/kg. For `NNC(=O)CSc1cc(Oc2ccccc2)ncn1`, the LD50 is 220 mg/kg. On to `C[N+](C)(C)CCBr`, for which the LD50 is 190 mg/kg. Consider `CCCCOC(=O)CC(C)=O`, for which the LD50 was 11300 mg/kg. Regarding `CS/C(C)=N/OC(=O)N(C)SN(C)C(=O)O/N=C(\C)SC`, the LD50 was 66 mg/kg. Regarding `CCCC[P+](CCCC)(CCCC)Cc1ccc(Cl)cc1Cl`, the LD50 is 178 mg/kg. As for `O=C(CCC(=O)OC1CCCCC1)OC1CCCCC1`, the LD50 is 12000 mg/kg. Turning to `CNC(=S)NNc1cc(C(F)(F)F)cc(C(F)(F)F)c1`, the LD50 was 414 mg/kg. As to `CO[C@H]1C=CC2=CCN3CCC4=C(CC(=O)OC4)[C@]23C1`, the LD50 was 510 mg/kg. Take `CC1=CC(=O)/C(=C(/C)O)C(=O)O1`: the LD50 was 500 mg/kg. Regarding `COP(=S)(OC)SCSCC=C(Cl)Cl`, the LD50 is 85 mg/kg. As for `C[C@H](CCC(=O)O)[C@H]1CC[C@H]2[C@@H]3[C@@H](O)C[C@@H]4C[C@H](O)CC[C@]4(C)[C@H]3CC[C@]12C`, the LD50 was 4600 mg/kg. Turning to `CN(C)CCC=C1c2ccccc2CCc2ccccc21`, the LD50 is 320 mg/kg.

Take `CC(=O)N(CCN(C)C)n1cc(-c2ccccc2)c2ccccc21`: the LD50 was 1100 mg/kg. Regarding `CCCN(CCC)c1c([N+](=O)[O-])cc(C(C)=O)cc1[N+](=O)[O-]`, the LD50 is 750 mg/kg. For `CCCSc1cc(Oc2ccc([N+](=O)[O-])cc2)ccc1Cl`, the LD50 was 1130 mg/kg. Turning to `OC(CCl)COCCCCCOCC(O)CCl` (stereo not given), the LD50 was 2250 mg/kg. Regarding `CC(=O)OC(c1ccc(Cl)c(Cl)c1)C(Cl)(Cl)Cl` (stereo not given), the median lethal dose (LD50) is 10000 mg/kg. With `Clc1cccc(N2CCNCC2)c1`, the LD50 was 142 mg/kg.

In the case of `O=C(O)Cc1ccc(C2CCCCC2)c(Cl)c1`, the median lethal dose (LD50) is 83 mg/kg. In the case of `O=C(O)c1cc(I)cc(I)c1I`, the LD50 is 2200 mg/kg and 813 mg/kg. With `CS(=O)C(C)(C)C(N)=O` (stereo not given), the LD50 is 16000 mg/kg. As for `CCO[Si](CS)(OCC)OCC`, the LD50 was 2550 mg/kg. Turning to `Nc1cccc(C(O)CNC2CC2)c1` (stereo not given), the LD50 was 3250 mg/kg. For `O=C(Oc1ccc(Cl)cc1Cl)N1CCCC1`, the median lethal dose (LD50) was 2200 mg/kg. Take `COc1ccc2cc(C(C)C(=O)OCCOCCO)ccc2c1` (stereo not given): the LD50 was 638 mg/kg. Regarding `CCN(CC)Cc1cc(-c2ccccc2)ccc1O`, the 50% lethal dose (LD50) was 28 mg/kg. With `CCn1c2ccccc2c2cc(N)ccc21`, the median lethal dose (LD50) is 144 mg/kg and 234 mg/kg. As for `CC1(C)[C@@H]2CC[C@@]1(C)[C@H](OC(=O)CSC#N)C2`, the LD50 was 1000 mg/kg. Consider `CCOC(=O)C1=C(C)NC(C)=C(C(=O)OCC)C1c1ccccc1/C=C/C(=O)OC(C)(C)C`, for which the 50% lethal dose (LD50) was 880 mg/kg.

As for `O=S(=O)(O)c1cccc2c(S(=O)(=O)O)cccc12`, the LD50 is 30000 mg/kg. Regarding `CCCOP(=O)(OCCC)Oc1ccc2c(C)c(Cl)c(=O)oc2c1`, the LD50 is 80 mg/kg. As for `CN(C)CC(=O)O`, the LD50 was 3900 mg/kg. In the case of `CCN(CC)S(=O)(=O)c1c(Cl)c(Cl)c(Cl)c2[nH]c(C(F)(F)F)nc12`, the LD50 was 11.2 mg/kg. Regarding `C=S`, the LD50 was 365 mg/kg. Turning to `C/N=N/Nc1ccc([N+](=O)[O-])cc1`, the LD50 was 468 mg/kg.

With `CCCCc1c(OC(=O)c2ccccc2)n(-c2ccccc2)n(-c2ccccc2)c1=O`, the LD50 was 2200 mg/kg. As for `C=C(C)OC(C)=O`, the LD50 is 3000 mg/kg.

Turning to `CCOC(=O)/C=C/C(=O)OCC`, the LD50 is 1780 mg/kg. For `CC(C)(c1ccccc1)c1ccc(O)cc1`, the LD50 was 1770 mg/kg. Turning to `CCCCCCCCN`, the LD50 was 315 mg/kg.

In the case of `ClC(Cl)(Br)CBr`, the LD50 is 205 mg/kg. Consider `COc1cc(C)c2[nH]c(=O)sc2c1`, for which the LD50 was 7580 mg/kg. As for `OCCCc1ccccc1`, the LD50 was 2300 mg/kg. As to `CN(C)c1nc(N(C)C)nc(N(C)C)n1`, the LD50 was 350 mg/kg.

Regarding `CCCCCCC(=O)OCCOCCOCCOCCOC(=O)CCCCCC`, the LD50 was 25000 mg/kg.

Regarding `C[Si]1(C)N[Si](C)(C)N[Si](C)(C)N1`, the LD50 was 500 mg/kg. In the case of `CNC(=O)Oc1ccccc1C1OCCO1`, the LD50 was 25 mg/kg. `CNC(=O)Oc1ccccc1C1OCC(C)O1` (stereo not given): the LD50 is 110 mg/kg. `CCOP(=S)(CCl)Oc1ccc([N+](=O)[O-])cc1` (stereo not given): the median lethal dose (LD50) was 127 mg/kg. For `O=[N+]([O-])c1ccccc1C1OCC(CCl)O1` (stereo not given), the LD50 was 65 mg/kg. `CCOC(=O)CCC(=O)OCC`: the LD50 was 8530 mg/kg. On to `O=C(CCl)c1ccc(O)cc1`, for which the LD50 is 230 mg/kg. Turning to `CC(C)(O)CCc1ccccc1`, the LD50 was 2200 mg/kg.

In the case of `OC1(c2ccc(Cl)cc2)N=CN[n+]2ccc3ccccc3c21` (stereo not given), the LD50 was 1300 mg/kg. For the compound `CC(C)C(NC(=O)COc1ccc(Cl)cc1Cl)C(=O)O` (stereo not given), the LD50 was 750 mg/kg. As for `C=C(C)CN(CC)c1c([N+](=O)[O-])cc(C(F)(F)F)cc1[N+](=O)[O-]`, the LD50 is 10000 mg/kg. Consider `CN(C)[C@@H]1C(O)=C(C(N)=O)C(=O)[C@@]2(O)C(O)=C3C(=O)c4c(O)ccc(Cl)c4[C@@H](O)[C@H]3C[C@@H]12`, for which the LD50 is 2370 mg/kg.

Consider `CC(=O)CCC=C(C)C`, for which the LD50 was 3500 mg/kg. As for `CC(C)(C)c1ccc2cc(C(C)(C)C)c(S(=O)(=O)O)cc2c1`, the 50% lethal dose (LD50) was 4240 mg/kg.

With `C=COCCOCC1CO1` (stereo not given), the LD50 was 2440 mg/kg. Take `CC[C@@H](C(=O)[C@@H](C)[C@@H](O)[C@H](C)CCc1ccc(C)c(O)c1C(=O)O)[C@H]1O[C@](CC)([C@H]2CC[C@](O)(CC)[C@H](C)O2)C[C@@H]1C`: the LD50 is 122 mg/kg. Regarding `CSc1ccccc1`, the LD50 is 891 mg/kg.

Consider `C[N+]1(C)CCc2cc(Cl)ccc21`, for which the LD50 was 447 mg/kg.

`CC(COCCN)COCCCN` (stereo not given): the LD50 is 242 mg/kg. For `COP(=O)(OC)Oc1cc(C)n(C)c(=O)c1`, the LD50 was 2.91 mg/kg. `C=CCSC(=S)SC(Cl)(Cl)Cl`: the LD50 was 2180 mg/kg.

As to `CCOC(C1=NCCCN1)c1ccccc1` (stereo not given), the LD50 is 1540 mg/kg. On to `CCOc1ccccc1OCC`, for which the LD50 is 7250 mg/kg. As for `C[N+](C)(C)CC(O)CC(=O)O` (stereo not given), the LD50 is 6890 mg/kg. Turning to `CNc1nc(C)nc(OC)n1`, the LD50 was 394 mg/kg.

`N#Cc1ccc(N)cc1`: the LD50 was 283 mg/kg. For `ClC(Cl)c1cccc(Oc2ccccc2)c1`, the LD50 was 6000 mg/kg.

As for `CC(CN)CCCN` (stereo not given), the LD50 is 1690 mg/kg. Consider `COc1ccccc1OC(=O)CNC(=O)Cc1ccc(C(=O)c2ccc(C)cc2)n1C`, for which the LD50 is 1450 mg/kg.
